Test [1] has as its target T1, ~100 representative kinases (Homo sapiens, UniProt Q9BVS4).
T1 construct: Recombinant protein kinase domains with a concentration of 2 μM
Description: DSF 100 kinase selectivity screen.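 Also: compound tested at 20 µM.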 Type of test: binding. To be noted: Protein RIOK2; DSF; average of three replicates. An outline of the steps: (§1)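 Each kinase domain, at 2 μM, is mixed with 20 μM test compound and SYPRO Orange in Hepes (20 mM, pH 7.5) with 500 mM NaCl. Temperature is then raised at 3°C/min and fluorescence-monitored unfolding yields the melting temperature change, ΔTm in degrees Celsius.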

Test [2] addresses T2, ~100 representative kinases (Homo sapiens, UniProt Q9UK32).
T2 construct: Recombinant protein kinase domains with a concentration of 2 μM
Kind of test: DSF 100 kinase selectivity screen.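 Also: compound tested at 20 µM.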 Type of test: binding. To be noted: Protein RPS6KA6; DSF; average of three replicates. In outline:
as §1

Test [3] concerns the target T3, G2019S LRRK2 (Homo sapiens, UniProt Q5S007, G2019S).
T3 construct: The three constructs used in this study are indicated: full-length LRRK2, LRRK2^RCKW, and LRRK2^KW
Description: Western blot of Rab8a phosphorylation in 293T cells transfected with G2019S LRRK2 and GFP-Rab8a. Type of test: cell-based. The following applies: for inhibition of Rab8a phosphorylation by wild-type and G2019S LRRK2: 293T cells; for pRab8/Rab8/LRRK2 normalized to DMSO, Mean / pRab8/Rab8/LRRK2 normalized to DMSO: GFP-11 tagged G2019S LRRK2, 5 μM; for pRab8/Rab8/LRRK2 normalized to DMSO, Mean: 4 replicates; for pRab8/Rab8/LRRK2 normalized to DMSO: individual blots, normalized to WT DMSO (G2019S DMSO mean 2.25334). As to the method:
For all in cell kinase assays, after 48 hours, transfected cells were treated with either DMSO (control) or the indicated inhibitors for 4 hours at 37°C and 5% CO2. Following treatments, cells were washed three times with ice cold PBS. Cells were then lysed in ice cold radioimmunoprecipitation assay (RIPA) lysis buffer [50 mM tris (pH 8.0), 150 mM NaCl, 1% Triton X-100, 0.1% SDS, 0.5% sodium deoxycholate, and 1 mM DTT] in the presence of complete mini EASYpack protease inhibitor cocktail and the PhosSTOP EASYpack phosphatase inhibitor cocktail (Roche). Resuspended and lysed cells were clarified by centrifugation at 13,000g for 15 min at 4°C. […] The membrane was blocked in 5% milk in 1× Tris-buffered saline (TBS) [20 mM tris (pH 8.0) and 150 mM NaCl] for 1 hour shaking at room temperature. […] Membranes were then washed three times in 1× TBS-T before imaging on Li-COR Odyssey CLx controlled by Imaging Studio software (www.licorbio.com/image-studio, RRID:SCR_015795). […] The signal intensity of each band was assessed using the Analyze>Gels tool. The band intensity for phosphorylated LRRK2 was measured and compared to total LRRK2 levels (run under identical conditions on a separate gel). Band intensity for phosphorylated Rab7 or Rab8a was measured and compared against total GFP-Rab7 or GFP-Rab8a (using anti-GFP antibody) and LRRK1/LRRK2 levels as appropriate. Comparative statistical analysis of phosphorylation levels was analyzed using a one-way analysis of variance (ANOVA) and corrected using Tukey’s multiple comparisons test in GraphPad Prism 10 (www.graphpad.com/, RRID:SCR_002798).
Background: Immunoblotting shows a protein as a band on a membrane.

The target in test [4] is T4, 350 wild-type kinases (Homo sapiens, UniProt P00519).
T4 construct: purchased Reaction Biology (assay service)
T4 sequence (P00519 whole entry): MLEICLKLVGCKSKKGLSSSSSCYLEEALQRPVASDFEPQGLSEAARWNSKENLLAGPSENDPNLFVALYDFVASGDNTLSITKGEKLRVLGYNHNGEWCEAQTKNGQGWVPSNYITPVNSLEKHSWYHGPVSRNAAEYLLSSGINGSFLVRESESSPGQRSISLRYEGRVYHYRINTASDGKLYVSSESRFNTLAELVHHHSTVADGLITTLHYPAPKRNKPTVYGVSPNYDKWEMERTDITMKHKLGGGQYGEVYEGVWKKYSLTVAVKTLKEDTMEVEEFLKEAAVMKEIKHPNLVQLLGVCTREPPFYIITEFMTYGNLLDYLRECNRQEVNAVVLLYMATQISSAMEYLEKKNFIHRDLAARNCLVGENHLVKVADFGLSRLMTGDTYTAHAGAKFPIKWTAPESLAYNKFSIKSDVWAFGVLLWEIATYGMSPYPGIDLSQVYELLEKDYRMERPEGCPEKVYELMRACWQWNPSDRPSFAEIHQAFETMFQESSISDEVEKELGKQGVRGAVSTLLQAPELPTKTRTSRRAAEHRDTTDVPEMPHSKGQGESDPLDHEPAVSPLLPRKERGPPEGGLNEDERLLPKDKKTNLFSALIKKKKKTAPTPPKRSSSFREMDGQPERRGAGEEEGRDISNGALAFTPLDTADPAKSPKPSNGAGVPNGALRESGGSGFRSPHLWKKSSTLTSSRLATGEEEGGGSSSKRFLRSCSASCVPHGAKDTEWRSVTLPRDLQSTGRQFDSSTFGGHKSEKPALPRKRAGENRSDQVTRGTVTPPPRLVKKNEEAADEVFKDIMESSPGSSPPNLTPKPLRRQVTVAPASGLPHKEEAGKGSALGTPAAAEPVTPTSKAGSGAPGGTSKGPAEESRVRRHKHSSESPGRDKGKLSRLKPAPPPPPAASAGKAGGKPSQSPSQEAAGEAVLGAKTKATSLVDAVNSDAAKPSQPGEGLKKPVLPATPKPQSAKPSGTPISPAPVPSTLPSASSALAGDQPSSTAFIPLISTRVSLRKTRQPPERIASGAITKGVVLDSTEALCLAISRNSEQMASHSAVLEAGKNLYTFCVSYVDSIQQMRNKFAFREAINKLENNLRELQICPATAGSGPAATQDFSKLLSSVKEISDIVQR
Description: 33PanQinase kinome-wide selectivity profile (Reaction Biology). Type of test: biochemical. To be noted: kinase ABL1, ATP 0,3 µM, singlicate. As to the method: (§2) Compound RN341 was tested at two concentrations of 1 and 10 μM against a panel of 350 wild-type kinases in the ^33PanQinase assay. The assay was performed by Reaction Biology (www.reactionbiology.com/services/kinase-assays/kinase-panel-screening/).

In test [5] the target is T5, 350 wild-type kinases (Homo sapiens, UniProt Q04771).
T5 construct: purchased Reaction Biology (assay service)
The test is described as above. Type of test: biochemical. The following applies: kinase ACVR1, ATP 3 µM, singlicate. As for the experimental part:
as §2

The target in test [6] is T6, 350 wild-type kinases (Homo sapiens, UniProt P33981).
T6 construct: purchased Reaction Biology (assay service)
The description is as above. Type of test: biochemical. The following applies: 1 μM, TTK; read-out: TTK activity, % of control. As for the experimental part:
as §2

Test [7] has as its target T7, 350 wild-type kinases (Homo sapiens, UniProt P49761).
T7 construct: purchased Reaction Biology (assay service)
Described as above. Type of test: biochemical. The following applies: kinase CLK3, ATP 0,3 µM, singlicate. As for the experimental part: as §2

The target in test [8] is T8, 350 wild-type kinases (Homo sapiens, UniProt Q00534).
T8 construct: purchased Reaction Biology (assay service)
T8 sequence (Q00534 whole entry): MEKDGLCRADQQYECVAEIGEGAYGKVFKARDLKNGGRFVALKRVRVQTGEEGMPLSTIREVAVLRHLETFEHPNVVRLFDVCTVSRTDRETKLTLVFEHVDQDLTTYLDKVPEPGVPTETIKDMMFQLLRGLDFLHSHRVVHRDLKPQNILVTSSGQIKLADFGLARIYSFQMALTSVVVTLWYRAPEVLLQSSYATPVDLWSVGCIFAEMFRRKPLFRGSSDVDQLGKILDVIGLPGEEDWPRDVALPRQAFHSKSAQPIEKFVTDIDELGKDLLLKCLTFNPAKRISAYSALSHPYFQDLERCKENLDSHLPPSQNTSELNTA
The test is described as above. Type of test: biochemical. The following applies: singlicate; for Residual activity (% of control), CDK6/CycD1: kinase CDK6/CycD1, ATP 3 µM; for Residual activity (% of control), CDK6/CycD2: kinase CDK6/CycD2, ATP 10 µM; for Residual activity (% of control), CDK6/CycD3: kinase CDK6/CycD3, ATP 30 µM. As to the method: as §2

The target of test [9] is T9, 350 wild-type kinases (Homo sapiens, UniProt O14965).
T9 construct: purchased Reaction Biology (assay service)
T9 sequence (O14965 whole entry): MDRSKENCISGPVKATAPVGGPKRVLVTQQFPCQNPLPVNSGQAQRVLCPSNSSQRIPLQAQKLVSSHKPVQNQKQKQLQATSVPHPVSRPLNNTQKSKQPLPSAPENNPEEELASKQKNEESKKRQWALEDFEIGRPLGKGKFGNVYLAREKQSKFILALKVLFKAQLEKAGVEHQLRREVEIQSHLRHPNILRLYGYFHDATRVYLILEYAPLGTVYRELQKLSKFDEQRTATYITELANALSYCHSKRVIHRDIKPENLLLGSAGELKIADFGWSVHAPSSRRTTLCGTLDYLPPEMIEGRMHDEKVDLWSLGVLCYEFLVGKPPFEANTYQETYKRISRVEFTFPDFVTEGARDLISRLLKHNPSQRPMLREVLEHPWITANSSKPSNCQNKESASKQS
The description is as above. Type of test: biochemical. To be noted: kinase AuroraA, ATP 10 µM, singlicate. As to the method:
as §2

In test [10] the target is T10, 350 wild-type kinases (Homo sapiens, UniProt P51451).
T10 construct: purchased Reaction Biology (assay service)
The description is as above. Type of test: biochemical. To be noted: kinase BLK, ATP 0,3 µM, singlicate. As to the method: as §2

The target of test [11] is T11, 350 wild-type kinases (Homo sapiens, UniProt P41240).
T11 construct: purchased Reaction Biology (assay service)
The test is described as above. Type of test: biochemical. To be noted: kinase CSK, ATP 1 µM, singlicate. As to the method:
as §2

Test [12] concerns the target T12, 350 wild-type kinases (Homo sapiens, UniProt Q9HAZ1).
T12 construct: purchased Reaction Biology (assay service)
The test is described as above. Type of test: biochemical. To be noted: kinase CLK4, ATP 0,1 µM, singlicate. As to the method:
as §2

Test [13] deals with T13, 350 wild-type kinases (Homo sapiens, UniProt Q9HCP0).
T13 construct: purchased Reaction Biology (assay service)
Described as above. The following applies: kinase CK1gamma1, ATP 0,1 µM, singlicate. Type of test: biochemical. As to the method:
as §2

Test [14] concerns the target T14, 350 wild-type kinases (Homo sapiens, UniProt Q9UIK4).
T14 construct: purchased Reaction Biology (assay service)
Described as above. The following applies: kinase DAPK2, ATP 0,1 µM, singlicate. Type of test: biochemical. As for the experimental part:
as §2

Test [15] addresses T15, 350 wild-type kinases (Homo sapiens, UniProt Q9Y243).
T15 construct: purchased Reaction Biology (assay service)
The test is described as above. Type of test: biochemical. The following applies: kinase AKT3, ATP 3 µM, singlicate. As for the experimental part:
as §2

Test [16] addresses T16, 350 wild-type kinases (Homo sapiens, UniProt P11802).
T16 construct: purchased Reaction Biology (assay service)
The test is described as above. Type of test: biochemical. The following applies: singlicate; for Residual activity (% of control), CDK4/CycD1: kinase CDK4/CycD1; for Residual activity (% of control), CDK4/CycD1 / Residual activity (% of control), CDK4/CycD2: ATP 3 µM; for Residual activity (% of control), CDK4/CycD2: kinase CDK4/CycD2; for Residual activity (% of control), CDK4/CycD3: kinase CDK4/CycD3, ATP 10 µM. As to the method: as §2

Several values for one entry are separate records, joined by “and”; a condition that tells them apart may be missing. Equal entries are not always repeated.

T3 sequence (Q5S007 whole entry G2019S): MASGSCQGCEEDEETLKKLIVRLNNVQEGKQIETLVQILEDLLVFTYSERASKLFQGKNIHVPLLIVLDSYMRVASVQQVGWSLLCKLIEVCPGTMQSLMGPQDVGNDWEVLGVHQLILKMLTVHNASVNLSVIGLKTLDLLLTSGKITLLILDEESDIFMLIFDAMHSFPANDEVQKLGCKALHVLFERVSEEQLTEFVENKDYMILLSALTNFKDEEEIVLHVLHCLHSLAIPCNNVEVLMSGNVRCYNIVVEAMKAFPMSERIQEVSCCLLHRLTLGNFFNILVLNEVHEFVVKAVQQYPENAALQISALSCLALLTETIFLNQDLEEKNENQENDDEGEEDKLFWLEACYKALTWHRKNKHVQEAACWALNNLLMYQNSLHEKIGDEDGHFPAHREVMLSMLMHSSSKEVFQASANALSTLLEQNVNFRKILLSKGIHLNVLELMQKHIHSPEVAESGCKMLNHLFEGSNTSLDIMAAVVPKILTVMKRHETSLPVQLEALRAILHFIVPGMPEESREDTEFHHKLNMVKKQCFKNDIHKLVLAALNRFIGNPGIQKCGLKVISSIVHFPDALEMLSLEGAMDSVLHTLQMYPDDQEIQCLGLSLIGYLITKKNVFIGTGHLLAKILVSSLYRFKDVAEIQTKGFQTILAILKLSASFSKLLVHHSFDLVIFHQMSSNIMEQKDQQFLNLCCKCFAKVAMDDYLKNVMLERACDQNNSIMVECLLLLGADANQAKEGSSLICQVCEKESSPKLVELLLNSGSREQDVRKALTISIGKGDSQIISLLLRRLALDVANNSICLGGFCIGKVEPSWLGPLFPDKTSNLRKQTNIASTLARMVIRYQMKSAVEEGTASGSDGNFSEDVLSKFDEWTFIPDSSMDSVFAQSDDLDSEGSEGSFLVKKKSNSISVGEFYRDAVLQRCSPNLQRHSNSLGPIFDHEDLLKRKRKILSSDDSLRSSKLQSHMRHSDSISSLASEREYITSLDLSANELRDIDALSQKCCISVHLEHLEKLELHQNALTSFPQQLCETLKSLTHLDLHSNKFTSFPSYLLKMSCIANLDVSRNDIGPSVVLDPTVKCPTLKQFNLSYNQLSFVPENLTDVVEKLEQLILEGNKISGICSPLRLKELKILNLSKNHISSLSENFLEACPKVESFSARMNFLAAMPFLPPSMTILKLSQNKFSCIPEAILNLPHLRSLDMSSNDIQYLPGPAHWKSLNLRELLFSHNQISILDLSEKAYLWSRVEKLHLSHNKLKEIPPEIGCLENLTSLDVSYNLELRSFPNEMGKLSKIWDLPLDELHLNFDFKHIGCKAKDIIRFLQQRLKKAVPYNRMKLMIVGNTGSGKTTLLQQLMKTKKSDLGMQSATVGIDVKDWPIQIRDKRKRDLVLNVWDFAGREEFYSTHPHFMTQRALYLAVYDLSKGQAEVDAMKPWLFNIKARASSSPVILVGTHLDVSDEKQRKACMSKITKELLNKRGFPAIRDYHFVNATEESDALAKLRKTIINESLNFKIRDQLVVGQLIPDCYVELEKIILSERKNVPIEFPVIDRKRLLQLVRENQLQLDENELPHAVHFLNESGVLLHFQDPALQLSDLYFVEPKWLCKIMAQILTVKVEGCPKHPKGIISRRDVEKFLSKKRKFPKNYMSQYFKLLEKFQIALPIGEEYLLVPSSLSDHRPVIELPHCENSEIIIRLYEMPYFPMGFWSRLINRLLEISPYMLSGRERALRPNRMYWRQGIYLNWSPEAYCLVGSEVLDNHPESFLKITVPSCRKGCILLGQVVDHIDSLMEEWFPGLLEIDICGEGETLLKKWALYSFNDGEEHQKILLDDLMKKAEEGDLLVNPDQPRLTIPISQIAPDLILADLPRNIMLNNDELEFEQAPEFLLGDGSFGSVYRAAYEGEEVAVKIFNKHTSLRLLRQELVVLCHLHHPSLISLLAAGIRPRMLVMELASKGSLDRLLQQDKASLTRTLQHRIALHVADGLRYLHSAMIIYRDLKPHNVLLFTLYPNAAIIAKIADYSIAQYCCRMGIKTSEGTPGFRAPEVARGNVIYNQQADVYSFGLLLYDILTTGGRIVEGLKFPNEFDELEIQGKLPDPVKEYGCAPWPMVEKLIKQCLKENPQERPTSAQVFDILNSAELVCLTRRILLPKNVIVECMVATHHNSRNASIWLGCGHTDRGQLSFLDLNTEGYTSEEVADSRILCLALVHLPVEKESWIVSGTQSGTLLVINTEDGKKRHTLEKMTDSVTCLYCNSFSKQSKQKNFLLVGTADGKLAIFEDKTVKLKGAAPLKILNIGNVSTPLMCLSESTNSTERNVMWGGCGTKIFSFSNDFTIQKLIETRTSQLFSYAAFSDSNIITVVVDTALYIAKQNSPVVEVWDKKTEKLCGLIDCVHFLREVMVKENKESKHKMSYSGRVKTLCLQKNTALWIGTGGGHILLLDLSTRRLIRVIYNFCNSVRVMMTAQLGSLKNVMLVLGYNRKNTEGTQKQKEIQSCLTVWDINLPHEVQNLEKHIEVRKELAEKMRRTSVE
T16 sequence (P11802 whole entry): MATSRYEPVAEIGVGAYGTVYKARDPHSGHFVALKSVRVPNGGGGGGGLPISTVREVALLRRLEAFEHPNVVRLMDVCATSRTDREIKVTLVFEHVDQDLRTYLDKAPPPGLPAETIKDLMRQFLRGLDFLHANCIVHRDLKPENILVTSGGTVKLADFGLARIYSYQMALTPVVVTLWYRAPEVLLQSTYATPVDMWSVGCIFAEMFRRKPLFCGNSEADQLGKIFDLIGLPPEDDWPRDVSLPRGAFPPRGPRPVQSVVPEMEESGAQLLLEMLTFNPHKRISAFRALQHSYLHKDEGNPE
T14 sequence (Q9UIK4 whole entry): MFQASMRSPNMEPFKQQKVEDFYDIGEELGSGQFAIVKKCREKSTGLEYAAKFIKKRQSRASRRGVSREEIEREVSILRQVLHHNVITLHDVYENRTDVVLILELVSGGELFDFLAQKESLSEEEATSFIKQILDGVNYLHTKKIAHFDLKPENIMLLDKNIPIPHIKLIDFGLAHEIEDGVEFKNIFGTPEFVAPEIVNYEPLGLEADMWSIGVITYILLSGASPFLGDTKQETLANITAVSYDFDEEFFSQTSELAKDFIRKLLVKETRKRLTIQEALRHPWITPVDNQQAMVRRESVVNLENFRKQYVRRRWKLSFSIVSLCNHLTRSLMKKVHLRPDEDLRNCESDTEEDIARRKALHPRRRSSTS

For the molecule `Cc1ccc(C(=O)Nc2ccc(CN3CCN(C)CC3)c(C(F)(F)F)c2)cc1C#Cc1c[nH]c2ncnc(N3CCOCC3)c12` [Compound 1], the results for the dTm in test [1] and in test [2] were 1.81 K and -0.02 K, respectively.

Turning to `Cc1ccc(-n2nc(C(C)(C)C)cc2NC(=O)Nc2cccc(-c3c[nH]c4nc(Cl)nc(N5CCOCC5)c34)c2)cc1` [Compound 30], in [3], the “inhibition of Rab8a phosphorylation by wild-type and G2019S LRRK2” value is “inhibited phosphorylation of Rab8a by both the wild-type and mutant kinase”; the “pRab8/Rab8/LRRK2 normalized to DMSO, Mean” value is listed as 0.5785. Also, in test [3] (listed as RN277), the “pRab8/Rab8/LRRK2 normalized to DMSO” value was 0.5672 and 0.4996 and 1.119 and 0.1285.

As for `CCSc1nc(NC)c2c(-c3cccc(NC(=O)Nc4cc(C(C)(C)C)nn4-c4ccc(C)cc4)c3)c[nH]c2n1` [Compound 32], in [3], the “inhibition of Rab8a phosphorylation by wild-type and G2019S LRRK2” value is “inhibited phosphorylation of Rab8a by both the wild-type and mutant kinase”. Moreover, the “pRab8/Rab8/LRRK2 normalized to DMSO, Mean” value in test [3] is on record as 0.8793. Also, in [3] (listed as RN341), the “pRab8/Rab8/LRRK2 normalized to DMSO” value was 0.923 and 1.39 and 0.7952 and 0.4091. In addition, the results for the “Residual activity (% of control), ABL1” value in [4] (Assay Conc. 1.0E-05 M) and in test [4] (Assay Conc. 1.0E-06 M) were 70 % of control and 102 % of control, respectively. Moreover, the “Residual activity (% of control), ACVR1” value is 93 % of control in test [5] (Assay Conc. 1.0E-05 M) and 107 % of control in [5] (Assay Conc. 1.0E-06 M). The remaining activity at 1 µM in test [6] is under 50%. For the same molecule, the “Residual activity (% of control), CLK3” value is 66 % of control in test [7] (Assay Conc. 1.0E-05 M) and 90 % of control in test [7] (Assay Conc. 1.0E-06 M). Also, the “Residual activity (% of control), CDK6/CycD1” value is 74 % of control in test [8] (Assay Conc. 1.0E-05 M) and 127 % of control in test [8] (Assay Conc. 1.0E-06 M). The “Residual activity (% of control), CDK6/CycD2” value in test [8] (Assay Conc. 1.0E-05 M) is 80 % of control; in test [8] (Assay Conc. 1.0E-06 M) it was 109 % of control. Also, the “Residual activity (% of control), CDK6/CycD3” value was 73 % of control in test [8] (Assay Conc. 1.0E-05 M) and 94 % of control in test [8] (Assay Conc. 1.0E-06 M). For the same molecule, the results for the “Residual activity (% of control), AuroraA” value in test [9] (Assay Conc. 1.0E-05 M) and in [9] (Assay Conc. 1.0E-06 M) were 74 % of control and 96 % of control, respectively. In addition, the “Residual activity (% of control), BLK” value is recorded as 55 % of control in [10] (Assay Conc. 1.0E-05 M) and 78 % of control in [10] (Assay Conc. 1.0E-06 M). Further, the “Residual activity (% of control), CSK” value is recorded as 69 % of control in [11] (Assay Conc. 1.0E-05 M) and 97 % of control in test [11] (Assay Conc. 1.0E-06 M). Further, the “Residual activity (% of control), CLK4” value in [12] (Assay Conc. 1.0E-05 M) was 43 % of control; in test [12] (Assay Conc. 1.0E-06 M), 80 % of control. Moreover, the results for the “Residual activity (% of control), CK1gamma1” value in test [13] (Assay Conc. 1.0E-05 M) and in [13] (Assay Conc. 1.0E-06 M) were 97 % of control and 92 % of control, respectively. The “Residual activity (% of control), DAPK2” value is on record as 88 % of control in test [14] (Assay Conc. 1.0E-05 M) and 93 % of control in test [14] (Assay Conc. 1.0E-06 M). Moreover, the “Residual activity (% of control), AKT3” value in [15] (Assay Conc. 1.0E-05 M) is 113 % of control; in [15] (Assay Conc. 1.0E-06 M), 115 % of control. Further, the results for the “Residual activity (% of control), CDK4/CycD1” value in test [16] (Assay Conc. 1.0E-05 M) and in [16] (Assay Conc. 1.0E-06 M) were 57 % of control and 87 % of control, respectively. The “Residual activity (% of control), CDK4/CycD2” value in test [16] (Assay Conc. 1.0E-05 M) is 49 % of control; in [16] (Assay Conc. 1.0E-06 M), 111 % of control. Further, the “Residual activity (% of control), CDK4/CycD3” value in [16] (Assay Conc. 1.0E-05 M) was 87 % of control; in test [16] (Assay Conc. 1.0E-06 M), 102 % of control.

The record behind these values is publication PMC12136037, “Type II kinase inhibitors that target Parkinson’s disease–associated LRRK2” (Science Advances, 2025).
